Toxic doses and inconclusive results are not listed. Rule as the data show it: active = T/C of 150% or more; inactive = T/C below 125%.
Tested on: L1210 leukemia ip in BDF1 mice, survival T/C
Assay: NCI In Vivo Anticancer Drug Screen. Data for tumor model L1210 Leukemia (intraperitoneal) in B6D2F1 (BDF1) mice
Settings: endpoint: mean survival time, higher = longer survival
Summary of the method: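 Ratio derived from survival: compound-dosed mice over vehicle-dosed mice, all bearing a transplantable tumor.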

[1] = dose: 100.0 mg/kg/injection, schedule: Q04DX003 (ip), vehicle: saline with Tween-80
[2] = dose: 200.0 mg/kg/injection, schedule: Q04DX003 (ip), vehicle: saline with Tween-80
[3] = dose: 100.0 mg/kg/injection, schedule: Q04DX003 (ip), vehicle: saline
[4] = dose: 200.0 mg/kg/injection, schedule: Q04DX003 (ip), vehicle: saline
[5] = dose: 100.0 mg/kg/injection, schedule: Q01DX001 (ip), vehicle: Klucel (hydroxypropylcellulose) (HPC)
[6] = dose: 100.0 mg/kg/injection, schedule: Q01DX009 (ip), vehicle: Klucel (hydroxypropylcellulose) (HPC)
[7] = dose: 200.0 mg/kg/injection, schedule: Q01DX001 (ip), vehicle: Klucel (hydroxypropylcellulose) (HPC)
[8] = dose: 200.0 mg/kg/injection, schedule: Q01DX009 (ip), vehicle: Klucel (hydroxypropylcellulose) (HPC)
[9] = dose: 400.0 mg/kg/injection, schedule: Q01DX001 (ip), vehicle: Klucel (hydroxypropylcellulose) (HPC)
[10] = dose: 100.0 mg/kg/injection, schedule: Q04DX003 (ip), vehicle: Klucel (hydroxypropylcellulose) (HPC)
[11] = dose: 200.0 mg/kg/injection, schedule: Q04DX003 (ip), vehicle: Klucel (hydroxypropylcellulose) (HPC)
[12] = dose: 400.0 mg/kg/injection, schedule: Q01DX009 (ip), vehicle: Klucel (hydroxypropylcellulose) (HPC)
[13] = dose: 400.0 mg/kg/injection, schedule: Q04DX003 (ip), vehicle: Klucel (hydroxypropylcellulose) (HPC)
[14] = dose: 100.0 mg/kg/injection, schedule: Q01DX009 (ip), vehicle: saline with Tween-80
[15] = dose: 200.0 mg/kg/injection, schedule: Q01DX009 (ip), vehicle: saline with Tween-80
[16] = dose: 400.0 mg/kg/injection, schedule: Q01DX009 (ip), vehicle: saline with Tween-80
[17] = dose: 50.0 mg/kg/injection, schedule: Q04DX003 (ip), vehicle: saline
[18] = dose: 25.0 mg/kg/injection, schedule: Q04DX003 (ip), vehicle: Klucel (hydroxypropylcellulose) (HPC)

Measured: T/C

C[N+](C)(C)Cc1ccccc1/C(=N\O)c1ccccc1
inactive: dose: 10.0 mg/kg/injection, schedule: Q01DX001 (ip), vehicle: carboxymethylcellulose (CMC) 96 % of control | dose: 20.0 mg/kg/injection, schedule: Q01DX001 (ip), vehicle: carboxymethylcellulose (CMC) 101 % of control

c1ccc(CNCc2cccnc2)cc1
inactive: dose: 75.0 mg/kg/injection, schedule: Q01DX009 (ip), vehicle: other 91 % of control | dose: 150.0 mg/kg/injection, schedule: Q01DX009 (ip), vehicle: other 98 % of control

Cc1c2cnccc2c(C)c2c1c1ccccc1n2CCNCc1ccccc1
inactive: dose: 50.0 mg/kg/injection, schedule: Q04DX003 (ip), vehicle: saline with Tween-80 87 % of control | [1] 94 % of control | [2] 103 % of control

Cc1cc2c(cc1C)N(C(=O)CCl)CC(=O)N2
inactive: dose: 9.37 mg/kg/injection, schedule: Q01DX009 (ip), vehicle: acetone 95 % of control | dose: 18.75 mg/kg/injection, schedule: Q01DX009 (ip), vehicle: acetone 93 % of control | dose: 18.75 mg/kg/injection, schedule: Q04DX003 (ip), vehicle: saline 96 % of control | dose: 37.5 mg/kg/injection, schedule: Q01DX009 (ip), vehicle: acetone 93 % of control | dose: 37.5 mg/kg/injection, schedule: Q04DX003 (ip), vehicle: saline 98 % of control | dose: 75.0 mg/kg/injection, schedule: Q01DX001 (ip), vehicle: saline 113 % of control | dose: 75.0 mg/kg/injection, schedule: Q04DX003 (ip), vehicle: saline 93 % of control

Fc1ccc2[nH]c3c(c2c1)C[P+](Cc1cccc2ccccc12)(c1ccccc1)CC3 (configuration not stated)
inactive: [3] 98 % of control | [4] 88 % of control

O=C(COc1ccccc1[N+](=O)[O-])Nc1cccnc1
inactive: [1] 104 % of control | [2] 98 % of control | dose: 400.0 mg/kg/injection, schedule: Q04DX003 (ip), vehicle: saline with Tween-80 98 % of control

Cc1cc(C)c(N(C)C(=O)CCC(=O)O)c(C)c1Br
inactive: [5] 97 % of control | [6] 93 % of control | [7] 97 % of control | [8] 93 % of control | [9] 104 % of control

CCOC(=O)C1(C(=O)OCC)NC(=O)CC1c1ccccc1 (configuration not stated)
inactive: [6] 94 % of control | [10] 92 % of control | [8] 101 % of control | [11] 100 % of control | [12] 92 % of control | [13] 105 % of control

COc1ccc(OC)c(NC(=O)NC(C)(C)C)c1
inactive: [6] 101 % of control | [8] 103 % of control | [12] 88 % of control

CCC(=O)C(CCCCCCOc1ccc(OC)cc1Cl)C(=O)CC
inactive: [14] 92 % of control | [15] 89 % of control | [16] 87 % of control

COc1c(Br)cc(N=Cc2ccc(N(CCCl)CCCl)cc2C)cc1Br
inactive: dose: 100.0 mg/kg/injection, schedule: Q01DX001 (ip), vehicle: carboxymethylcellulose (CMC) 98 % of control | dose: 200.0 mg/kg/injection, schedule: Q01DX001 (ip), vehicle: carboxymethylcellulose (CMC) 107 % of control | dose: 400.0 mg/kg/injection, schedule: Q01DX001 (ip), vehicle: carboxymethylcellulose (CMC) 110 % of control

CN1C(=O)OC2(CCN(CCCS(=O)(=O)c3ccc(F)cc3)CC2)C1=O
inactive: [5] 92 % of control | [7] 105 % of control | [9] 93 % of control

O=C(Cc1cnccn1)c1ccc(C(=O)Cc2cnccn2)cc1
inactive: dose: 100.0 mg/kg/injection, schedule: Q04DX003 (ip), vehicle: carboxymethylcellulose (CMC) 94 % of control | dose: 200.0 mg/kg/injection, schedule: Q04DX003 (ip), vehicle: carboxymethylcellulose (CMC) 103 % of control | dose: 400.0 mg/kg/injection, schedule: Q04DX003 (ip), vehicle: carboxymethylcellulose (CMC) 102 % of control

COC1(c2cccs2)OC1(C)C (configuration not stated)
inactive: [14] 110 % of control | [15] 94 % of control | [16] 100 % of control

Cc1cc2c(cc1C)/C(=N/O)CCC2
inactive: [6] 100 % of control | [8] 101 % of control | [12] 101 % of control

C[N+]1(C)Cc2ccccc2-c2ccccc2C1
inactive: dose: 12.0 mg/kg/injection, schedule: Q04DX003 (ip), vehicle: saline 121 % of control | dose: 12.5 mg/kg/injection, schedule: Q01DX009 (ip), vehicle: saline 103 % of control | dose: 25.0 mg/kg/injection, schedule: Q01DX009 (ip), vehicle: saline 111 % of control | dose: 25.0 mg/kg/injection, schedule: Q04DX003 (ip), vehicle: saline 94 % of control | [17] 106 % of control

ClCC(Cl)C1CCC(Cl)C(Cl)C1 (configuration not stated)
inactive: dose: 50.0 mg/kg/injection, schedule: Q01DX009 (ip), vehicle: other 95 % of control | dose: 100.0 mg/kg/injection, schedule: Q01DX009 (ip), vehicle: other 90 % of control | dose: 200.0 mg/kg/injection, schedule: Q01DX009 (ip), vehicle: other 90 % of control

CC1=C(C)C2(C)C(C)(O)C(C)(O)C12C (configuration not stated)
inactive: dose: 75.0 mg/kg/injection, schedule: Q01DX001 (ip), vehicle: acetone 97 % of control | dose: 75.0 mg/kg/injection, schedule: Q04DX003 (ip), vehicle: saline with Tween-80 87 % of control | dose: 150.0 mg/kg/injection, schedule: Q01DX001 (ip), vehicle: acetone 102 % of control | dose: 300.0 mg/kg/injection, schedule: Q01DX001 (ip), vehicle: acetone 102 % of control

CCCCCCCCCCCCCCCCCCCC/C=C/C1CC(=O)OC1=O (configuration not stated)
inactive: [6] 98 % of control | [10] 95 % of control | [8] 96 % of control | [11] 98 % of control | [12] 96 % of control | [13] 113 % of control

CC(=O)OC1(C(C)(C)C)C(=O)C(=[N+]=[N-])C(O)(C(C)(C)C)C(=O)C1=[N+]=[N-] (configuration not stated)
inactive: dose: 100.0 mg/kg/injection, schedule: Q01DX001 (ip), vehicle: other 97 % of control | dose: 200.0 mg/kg/injection, schedule: Q01DX001 (ip), vehicle: other 97 % of control | dose: 400.0 mg/kg/injection, schedule: Q01DX001 (ip), vehicle: other 97 % of control

Cc1cc(NS(=O)(=O)c2ccc(N=Nc3cc(N=Nc4ccccc4)c(N)nc3N)cc2)nc(C)n1
inactive: dose: 100.0 mg/kg/injection, schedule: Q01DX001 (ip), vehicle: saline 100 % of control | dose: 200.0 mg/kg/injection, schedule: Q01DX001 (ip), vehicle: saline 100 % of control | dose: 400.0 mg/kg/injection, schedule: Q01DX001 (ip), vehicle: saline 105 % of control

O=C(Nc1c(Oc2ccc(Cl)cc2Cl)ccc(Cl)c1S(=O)(=O)O)Nc1c(Oc2ccc(Cl)cc2Cl)ccc(Cl)c1S(=O)(=O)O
inactive: [17] 101 % of control | [3] 97 % of control | [4] 95 % of control

CC1(C)C2CCC(CCOC(=O)COc3ccc(Cl)cc3Cl)C1C2 (configuration not stated)
inactive: [14] 104 % of control | [15] 94 % of control

OC(CC(O)(c1ccccc1)c1ccccc1)(c1ccccc1)c1ccccc1
inactive: dose: 9.5 mg/kg/injection, schedule: Q01DX001 (ip), vehicle: other 93 % of control | dose: 19.0 mg/kg/injection, schedule: Q01DX001 (ip), vehicle: other 96 % of control | dose: 38.0 mg/kg/injection, schedule: Q01DX001 (ip), vehicle: other 93 % of control

C=C1C(=O)OC2/C=C(\C)C(O)C/C=C(/C)CCC12 (configuration not stated)
inactive: [18] 96 % of control | dose: 50.0 mg/kg/injection, schedule: Q04DX003 (ip), vehicle: Klucel (hydroxypropylcellulose) (HPC) 102 % of control | [10] 100 % of control

CC1(C)[C@@H]2CC[C@]1(C)[C@@H](O)C2
inactive: [5] 104 % of control | [10] 102 % of control | [7] 96 % of control | [11] 102 % of control | [9] 93 % of control | [13] 97 % of control

CCN(CC)c1ccc(NC(C)=O)cc1
inactive: dose: 12.5 mg/kg/injection, schedule: Q01DX009 (ip), vehicle: Klucel (hydroxypropylcellulose) (HPC) 106 % of control | dose: 12.5 mg/kg/injection, schedule: Q04DX003 (ip), vehicle: Klucel (hydroxypropylcellulose) (HPC) 92 % of control | dose: 25.0 mg/kg/injection, schedule: Q01DX009 (ip), vehicle: Klucel (hydroxypropylcellulose) (HPC) 97 % of control | [18] 91 % of control | dose: 50.0 mg/kg/injection, schedule: Q01DX009 (ip), vehicle: Klucel (hydroxypropylcellulose) (HPC) 95 % of control

From PubChem BioAssay AID248 (DTP/NCI, 2004)
